From US5444064A, “Method of treating gastrointestinal malignancies” (Montefiore Medical Center, priority 1989, dated 1995)

Assays:
SW480 cells = test: Cytokinetic studies (cell cycle distribution by flow cytometry), SW480; format: cell-based, human
[1] = system: disseminated colorectal cancer; details: cited from earlier work
HT-29 cells = test: Cytokinetic studies (cell cycle distribution by flow cytometry), HT-29; format: cell-based, human
[2] = 5-fluorouracil 50-500 uM, 24 hour incubation

Structure (SMILES): O=c1[nH]cc(F)c(=O)[nH]1 [5-fluorouracil]
- depletion of G2M (SW480 cells; [2]): nearly complete depletion of G2M
- effect on cell cycle versus HT-29 (SW480 cells; 5-fluorouracil and alpha-2a-interferon alone or in combination, data not shown): qualitatively identical effects
- prolongation of the block in G0/G1 (SW480 cells; data not shown): 24 h
- completeness and duration of response ([1]; human, in vivo): rarely respond completely and the duration of the response is generally short
- remissions ([1]; patients with disseminated colorectal cancer): 15-35%
- median survival ([1]; versus untreated controls): no better than that of untreated controls
- depletion of G2M (HT-29 cells; [2]): nearly complete depletion of G2M
- time to depletion of G2M compartment (HT-29 cells; time course, from start of incubation): ≤ 7 h
